US11453647B2, “Benzimidazole derivatives as adenosine receptor antagonists” (Merck Patent GmbH, priority 2017, dated 2022)

Key:
Format in all cases: cell-based
[1] = target: T1, human A3 receptor (Homo sapiens, UniProt P0DMS8); assay: functional cAMP (HTRF) assay, recombinant CHO cells expressing human A3 receptor, forskolin, agonist IB-MECA
T1 construct: expressed in transfected cells; host or cells: CHO
T1 sequence (P0DMS8 1-318): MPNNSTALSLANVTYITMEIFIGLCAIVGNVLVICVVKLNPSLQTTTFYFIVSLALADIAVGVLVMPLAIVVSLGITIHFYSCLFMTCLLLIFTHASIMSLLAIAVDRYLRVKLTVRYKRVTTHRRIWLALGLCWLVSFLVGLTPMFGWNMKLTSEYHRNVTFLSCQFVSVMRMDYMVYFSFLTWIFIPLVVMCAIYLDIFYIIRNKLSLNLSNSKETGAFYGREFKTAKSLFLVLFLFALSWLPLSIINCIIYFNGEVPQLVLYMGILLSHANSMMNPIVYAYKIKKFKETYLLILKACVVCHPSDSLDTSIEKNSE
Method: The functional activities of human A2A, A2B, A1 and A3 receptors were determined by quantification of cAMP, being the second messenger for adenosine receptors.
For human A1 and A3 receptors, recombinant CHO cells, expressing either A1 or A3-receptor, were used. As both receptors couple to Gi proteins, the assay protocol was adapted:
Cells were seeded into 384-well plates, forskolin, test compounds and agonists (CPA for A1- and IB-MECA for A3-receptor) were added. After 30 min incubation, HTRF reagents (cAMP dynamic 2, Cis Bio) were added and the cellular cAMP levels were determined using the ENVISION (Perkin Elmer) plate reader. Obtained raw data were normalized against the inhibitor control and the neural control (DMSO) and the normalized data were fitted using GeneData software.

[2] = target: T2, human A2A receptor (Homo sapiens, UniProt P29274); assay: functional cAMP (HTRF) assay, recombinant HEK293 cells expressing human A2A receptor, agonist NECA
T2 construct: expressed in transfected cells; host or cells: HEK293
T2 sequence (P29274 whole entry): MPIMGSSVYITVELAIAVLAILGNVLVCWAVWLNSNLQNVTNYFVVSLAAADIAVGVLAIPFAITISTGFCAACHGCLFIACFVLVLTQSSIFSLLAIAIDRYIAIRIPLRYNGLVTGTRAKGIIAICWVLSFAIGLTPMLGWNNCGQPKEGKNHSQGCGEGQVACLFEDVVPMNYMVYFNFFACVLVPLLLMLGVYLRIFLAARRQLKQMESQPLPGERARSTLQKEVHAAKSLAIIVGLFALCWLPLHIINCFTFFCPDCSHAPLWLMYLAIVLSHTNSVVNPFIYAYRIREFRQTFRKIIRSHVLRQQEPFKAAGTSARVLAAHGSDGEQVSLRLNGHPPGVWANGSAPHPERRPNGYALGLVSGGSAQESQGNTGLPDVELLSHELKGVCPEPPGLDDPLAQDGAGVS

[3] = target: T3, A2B receptors (Homo sapiens, UniProt P29275); assay: functional cAMP (HTRF) assay, recombinant HEK293 cells expressing human A2B receptor, agonist NECA; design: expressed in transfected cells; host or cells: HEK293
T3 sequence (P29275 1-332): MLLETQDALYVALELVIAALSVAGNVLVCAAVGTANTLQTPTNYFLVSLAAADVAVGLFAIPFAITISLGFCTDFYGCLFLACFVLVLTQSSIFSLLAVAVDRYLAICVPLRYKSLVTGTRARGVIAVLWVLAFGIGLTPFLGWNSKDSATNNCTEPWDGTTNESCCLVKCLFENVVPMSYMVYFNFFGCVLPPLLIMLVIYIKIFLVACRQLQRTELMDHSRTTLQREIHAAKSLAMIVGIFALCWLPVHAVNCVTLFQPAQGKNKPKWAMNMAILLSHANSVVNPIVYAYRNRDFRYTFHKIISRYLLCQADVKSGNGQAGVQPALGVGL

Row | SMILES | IC50 [1] | IC50 [2] | IC50 [3]
1 | COc1ccc(-c2ccncc2)c2nc(NC(=O)c3ccc(CN(C)C)cc3)[nH]c12 [compound 89, 4-[(dimethylamino)methyl]-N-[7-methoxy-4-(pyridin-4-yl)-1H-1,3-benzodiazol-2-yl]benzamide] | > 1000 nM | < 100 nM | < 1000 nM
2 | COc1ccc(-c2cnn(CC(C)(C)O)c2)c2[nH]c(NC(=O)N3CCC(C)(O)CC3)nc12 [compound 238, 4-hydroxy-N-{7-[1-(2-hydroxy-2-methylpropyl)-1H-pyrazol-4-yl]-4-methoxy-1H-1,3-benzodiazol-2-yl}-4-methylpiperidine-1-carboxamide] | > 1000 nM | < 100 nM | –
3 | COc1ccc(-c2cnn(C)c2)c2nc(NC(=O)C3CNC(=O)C3)[nH]c12 (stereo not drawn) [compound 246, N-[7-methoxy-4-(1-methyl-1H-pyrazol-4-yl)-1H-1,3-benzodiazol-2-yl]-5-oxopyrrolidine-3-carboxamide] | > 1000 nM | < 100 nM | –
4 | COc1ccc(-c2cnn(C)c2)c2nc(NC(=O)NCc3nccs3)[nH]c12 [compound 247, 3-[7-methoxy-4-(1-methyl-1H-pyrazol-4-yl)-1H-1,3-benzodiazol-2-yl]-1-[(1,3-thiazol-2-yl)methyl]urea] | > 1000 nM | < 100 nM | –
5 | COc1ccc(-c2cnn(C)c2)c2nc(NC(=O)N[C@@H]3CNC[C@@H]3F)[nH]c12 [compound 249, 1-[(3R,4S)-4-fluoropyrrolidin-3-yl]-3-[7-methoxy-4-(1-methyl-1H-pyrazol-4-yl)-1H-1,3-benzodiazol-2-yl]urea] | – | < 100 nM | –
6 | COc1ccc(C2CCOCC2)c2nc(NC(=O)c3cccc(N=S(C)(C)=O)c3)[nH]c12 [compound 263, 3-{[dimethyl(oxo)-lambda6-sulfanylidene]amino}-N-[7-methoxy-4-(oxan-4-yl)-1H-1,3-benzodiazol-2-yl]benzamide] | > 1000 nM | < 100 nM | –
7 | COCCn1cc(C(=O)Nc2nc3c(-c4ccc5cc[nH]c5c4)ccc(OC)c3[nH]2)cn1 [compound 280, N-[4-(1H-indol-6-yl)-7-methoxy-1H-1,3-benzodiazol-2-yl]-1-(2-methoxyethyl)-1H-pyrazole-4-carboxamide] | – | < 100 nM | < 100 nM
8 | COc1ccc(-c2ccccc2)c2nc(NC(=O)c3cnc4ccccn34)[nH]c12 [compound 286, N-(7-methoxy-4-phenyl-1H-1,3-benzodiazol-2-yl)imidazo[1,2-a]pyridine-3-carboxamide] | – | < 100 nM | < 100 nM
9 | COc1ccc(-c2ccccc2)c2nc(NC(=O)c3cnc4ncccn34)[nH]c12 [compound 289, N-(7-methoxy-4-phenyl-1H-1,3-benzodiazol-2-yl)imidazo[1,2-a]pyrimidine-3-carboxamide] | – | < 100 nM | < 10 nM
10 | COc1ccc(-c2ccccc2)c2nc(NC(=O)c3c[nH]c(-c4ccncc4)n3)[nH]c12 [compound 290, N-(7-methoxy-4-phenyl-1H-1,3-benzodiazol-2-yl)-2-(pyridin-4-yl)-1H-imidazole-4-carboxamide] | – | < 100 nM | < 100 nM
11 | COc1ccc(-c2ccnc(C)c2)c2[nH]c(NC(=O)c3c[nH]cn3)nc12 [compound 299, N-[4-methoxy-7-(2-methylpyridin-4-yl)-1H-1,3-benzodiazol-2-yl]-1H-imidazole-4-carboxamide] | – | < 100 nM | < 100 nM
12 | COc1cc(C#N)c(-c2ccccc2)c2nc(NC(=O)c3cnn(C)c3)[nH]c12 [compound 300, N-(5-cyano-7-methoxy-4-phenyl-1H-1,3-benzodiazol-2-yl)-1-methyl-1H-pyrazole-4-carboxamide] | – | < 100 nM | < 100 nM
13 | COCCn1cc(C(=O)Nc2nc3c(-c4ccn5ccnc5c4)ccc(OC)c3[nH]2)cn1 [compound 301, N-(4-{imidazo[1,2-a]pyridin-7-yl}-7-methoxy-1H-1,3-benzodiazol-2-yl)-1-(2-methoxyethyl)-1H-pyrazole-4-carboxamide] | < 1000 nM | < 100 nM | –
14 | COCCn1cc(C(=O)Nc2nc3c(-c4ccc5[nH]ccc5c4)ccc(OC)c3[nH]2)cn1 [compound 302, N-[4-(1H-indol-5-yl)-7-methoxy-1H-1,3-benzodiazol-2-yl]-1-(2-methoxyethyl)-1H-pyrazole-4-carboxamide] | – | < 100 nM | < 100 nM
15 | COc1ccc(-c2ccc3[nH]ccc3c2)c2nc(NC(=O)N3CCC(C)(O)CC3)[nH]c12 [compound 303, 4-hydroxy-N-[4-(1H-indol-5-yl)-7-methoxy-1H-1,3-benzodiazol-2-yl]-4-methylpiperidine-1-carboxamide] | > 1000 nM | < 100 nM | –
16 | COc1ccc(-c2ccccc2)c2nc(NC(=O)c3cnn(C)c3)[nH]c12 [compound 306, N-(7-methoxy-4-phenyl-1H-1,3-benzodiazol-2-yl)-1-methyl-1H-pyrazole-4-carboxamide] | – | < 100 nM | < 10 nM
17 | COCCn1cc(C(=O)Nc2nc3c(-c4ccccc4)ccc(OC)c3[nH]2)cn1 [compound 307, N-(7-methoxy-4-phenyl-1H-1,3-benzodiazol-2-yl)-1-(2-methoxyethyl)-1H-pyrazole-4-carboxamide] | – | < 100 nM | < 10 nM
18 | COc1ccc(-c2ccccc2)c2nc(NC(=O)c3cnc(C)o3)[nH]c12 [compound 308, N-(7-methoxy-4-phenyl-1H-1,3-benzodiazol-2-yl)-2-methyl-1,3-oxazole-5-carboxamide] | – | < 100 nM | < 100 nM
19 | COc1ccc(-c2ccccc2)c2nc(NC(=O)c3ccc(C(=O)N(C)C)cc3)[nH]c12 [compound 309, N4-(7-methoxy-4-phenyl-1H-1,3-benzodiazol-2-yl)-N1,N1-dimethylbenzene-1,4-dicarboxamide] | – | < 100 nM | < 10 nM

More lines, now with the values ahead:

Row | IC50 [1] | IC50 [2] | IC50 [3] | SMILES
20 | < 10 nM | < 10 nM | < 100 nM | COc1ccc(-c2ccccc2)c2nc(NC(=O)c3ccc(F)cc3)[nH]c12 [compound 2, 4-Fluoro-N-(7-methoxy-4-phenyl-1H-benzoimidazol-2-yl)-benzamide]
21 | < 10 nM | < 10 nM | < 100 nM | COc1ccc(-c2ccccc2)c2nc(NC(=O)c3ccnc(Br)c3)[nH]c12 [compound 3, 2-Bromo-N-(7-methoxy-4-phenyl-1H-benzoimidazol-2-yl)-isonicotinamide]
22 | < 10 nM | < 10 nM | < 100 nM | COc1ccc(-c2ccccc2)c2nc(NC(=O)c3ccc(Br)nc3)[nH]c12 [compound 5, 6-Bromo-N-(7-methoxy-4-phenyl-1H-benzoimidazol-2-yl)-nicotinamide]
23 | < 1000 nM | < 10 nM | > 1000 nM | COc1ccc(C2CCCCC2)c2nc(NC(=O)c3ccnc(N4CCOCC4)c3)[nH]c12 [compound 17, N-(4-Cyclohexyl-7-methoxy-1H-benzoimidazol-2-yl)-2-morpholin-4-yl-isonicotinamide]
24 | < 1000 nM | < 10 nM | < 1000 nM | COc1ccc(-c2ccccc2)c2nc(NC(=O)N3CCC(C)CC3)[nH]c12 [compound 28, 4-Methyl-piperidine-1-carboxylic acid (7-methoxy-4-phenyl-1H-benzoimidazol-2-yl)-amide]
25 | < 1000 nM | < 10 nM | > 1000 nM | COc1ccc(-c2cnn(C)c2)c2nc(NC(=O)c3ccnc(N4CCC(C)(O)C4)c3)[nH]c12 (stereo not drawn) [compound 30, 2-(3-Hydroxy-3-methyl-pyrrolidin-1-yl)-N-[7-methoxy-4-(1-methyl-1H-pyrazol-4-yl)-1H-benzoimidazol-2-yl]-isonicotinamide]
26 | – | < 10 nM | < 100 nM | COc1ccc(-c2cnn(C)c2)c2nc(NC(=O)c3cnc(C)o3)[nH]c12 [compound 215, N-[7-methoxy-4-(1-methyl-1H-pyrazol-4-yl)-1H-1,3-benzodiazol-2-yl]-2-methyl-1,3-oxazole-5-carboxamide]
27 | – | < 10 nM | < 10 nM | COc1ccc(-c2cccc(F)c2)c2nc(NC(=O)c3cnn(C)c3)[nH]c12 [compound 239, N-[4-(3-fluorophenyl)-7-methoxy-1H-1,3-benzodiazol-2-yl]-1-methyl-1H-pyrazole-4-carboxamide]
28 | > 1000 nM | < 10 nM | < 100 nM | COc1ccc(C2CCOCC2)c2nc(NC(=O)c3ccc(N4C(=O)CCC4=O)cc3)[nH]c12 [compound 250, 4-(2,5-dioxopyrrolidin-1-yl)-N-[7-methoxy-4-(oxan-4-yl)-1H-1,3-benzodiazol-2-yl]benzamide]
